# Calls of active or inactive are those of the source. The rule behind the calls is not given here.
# Tests used:
# [1] = test system: RAW264.7; test: Antiinflammatory activity in mouse RAW264.7 cells assessed as inhibition of LPS-induced IL-1beta production preincubated for 2 hrs followed by LPS-stimulation for 24 hrs by ELISA; assay type: functional, cell-based; settings: dose 0.2-5 µM, time 26.0 hrs, DDE = dose-dependent effect
# [2] = test system: RAW264.7; test: Inhibition of LPS-induced NO production in mouse RAW264.7 cells at 5 uM preincubated with compound for 2 hrs followed by LPS stimulation for 24 hrs by Griess reagent based assay relative to control; assay type: functional; settings: time 26 hrs
# [3] = test system: RAW264.7; test: (§1) Antiinflammatory activity in LPS-stimulated mouse RAW264.7 cells assessed as inhibition of IkappaBalpha degradation at 0.2 to 5 uM pretreated with alpha7 nAChR antagonist, alpha-bungarotoxin for 1 hr followed by compound treatment for 2 hrs and further stimulated with LPS for 30 mins by Western blot analysis; assay type: functional, cell-based; settings: dose 0.2-5 µM, time 2.5 hrs
# [4] = test system: Mus musculus; test: Antiinflammatory activity in LPS-induced ICR sepsis mouse model assessed as suppression of LPS-induced serum interleukin-6 level at 5 to 20 mg/kg, ip pretreated with compound for 5 days followed by LPS stimulation and measured 2 hrs post last dose by ELISA analysis; assay type: functional, organism-based; settings: dose 5-20 mg/kg, time 5.0 day
# [5] = test system: Mus musculus; test: Antiinflammatory activity in LPS-induced ICR sepsis mouse model assessed as suppression of LPS-induced serum interleukin-1beta level at 5 to 20 mg/kg, ip pretreated with compound for 5 days followed by LPS stimulation and measured 2 hrs post last dose by ELISA analysis; assay type: functional, organism-based; settings: dose 5-20 mg/kg, time 5.0 day
# [6] = test system: RAW264.7; test: Antiinflammatory activity in mouse RAW264.7 cells assessed as inhibition of LPS-induced IL-6 production preincubated for 2 hrs followed by LPS-stimulation for 24 hrs by ELISA; assay type: functional, cell-based; settings: dose 0.2-5 µM, time 26.0 hrs, DDE = dose-dependent effect
# [7] = test system: RAW264.7; test: as §1, with “LPS-induced” for “LPS-stimulated”, “enhancement” for “inhibition”, “STAT3 phosphorylation” for “IkappaBalpha degradation”, “antagonist” for “antagonist,”; assay type: functional, cell-based; settings: dose 0.2-5 µM, time 2.5 hrs
# [8] = test system: RAW264.7; test: Antiinflammatory activity in mouse RAW264.7 cells assessed as decrease in LPS-induced IL-6 mRNA expression at 0.2 to 5 uM preincubated for 2 hrs followed by LPS-stimulation for 24 hrs by qRT-PCR analysis; assay type: functional, cell-based; settings: dose 0.2-5 µM, time 26.0 hrs
# [9] = test system: Mus musculus; test: (§2) Antiinflammatory activity in LPS-induced ICR sepsis mouse model assessed as attenuation of LPS-induced lung damage at 5 to 20 mg/kg, ip pretreated with compound for 5 days followed by LPS stimulation and measured 2 hrs post last dose by hematoxylin and eosin staining based microscopic analysis; assay type: functional, organism-based; settings: dose 5-20 mg/kg, time 5.0 day
# [10] = test system: Mus musculus; test: as §2, with “inflammatory cell infiltration” for “lung damage”; assay type: functional, organism-based; settings: dose 5-20 mg/kg, time 5.0 day
# [11] = test system: RAW264.7; test: Activation of NF-kappaB signalling pathway in mouse RAW264.7 cells assessed as decrease in LPS-induced AKT phosphorylation at 0.2 to 5 uM pretreated with compound for 2 hrs followed by LPS-stimulation for 30 mins by Western blot analysis; assay type: cell-based; settings: filed as activator, dose 0.2-5 µM, time 2.5 hrs
# [12] = test system: RAW264.7; test: Antiinflammatory activity in mouse RAW264.7 cells assessed as inhibition of LPS-induced iNOS protein expression preincubated for 2 hrs followed by LPS stimulation for 24 hrs by qRT-PCR analysis; assay type: functional, cell-based; settings: time 26.0 hrs, DDE = dose-dependent effect
# [13] = test system: RAW264.7; test: Antiinflammatory activity in mouse RAW264.7 cells assessed as inhibition of LPS-induced iNOS mRNA expression preincubated for 2 hrs followed by LPS stimulation for 24 hrs by qRT-PCR analysis; assay type: functional, cell-based; settings: dose 0.2-5 µM, time 26.0 hrs, DDE = dose-dependent effect
# [14] = test system: RAW264.7; test: Antiinflammatory activity in mouse RAW264.7 cells assessed as decrease in LPS-induced IL-1beta mRNA expression at 0.2 to 5 uM preincubated for 2 hrs followed by LPS-stimulation for 24 hrs by qRT-PCR analysis; assay type: functional, cell-based; settings: dose 0.2-5 µM, time 26.0 hrs
# [15] = test system: RAW264.7; test: Cytotoxicity against mouse RAW264.7 cells assessed as effect on cell viability at 5 uM incubated for 24 hrs by alamar blue reagent based fluorescence assay; assay type: toxicity; settings: raw264.7, 24 h
# [16] = test system: RAW264.7; test: Antiinflammatory activity in LPS-induced mouse RAW264.7 cells assessed as enhancement of STAT3 phosphorylation pretreated with compound for 2 hrs followed by LPS-stimulation and measured after 30 mins by Western blot analysis; assay type: functional, cell-based; settings: dose 0.2-5 µM, time 2.5 hrs, DDE = dose-dependent effect
# [17] = test system: RAW264.7; test: Activation of NF-kappaB signalling pathway in mouse RAW264.7 cells assessed as suppression of LPS-induced IkappaBalpha degradation pretreated with compound for 2 hrs followed by LPS-stimulation for 30 mins by Western blot analysis; assay type: cell-based; settings: filed as activator, dose 0.2-5 µM, time 2.5 hrs, DDE = dose-dependent effect
# [18] = molecular target: T1, Signal transducer and activator of transcription 1 (Mus musculus) (UniProt P42225); test: Inhibition of LPS-induced STAT1 phosphorylation in mouse RAW264.7 cells pretreated with compound for 2 hrs followed by LPS-stimulation and measured after 30 mins by immunoblot analysis; assay type: cell-based; settings: dose 0.2-5 µM, time 2.5 hrs, DDE = dose-dependent effect
# T1 sequence (whole entry): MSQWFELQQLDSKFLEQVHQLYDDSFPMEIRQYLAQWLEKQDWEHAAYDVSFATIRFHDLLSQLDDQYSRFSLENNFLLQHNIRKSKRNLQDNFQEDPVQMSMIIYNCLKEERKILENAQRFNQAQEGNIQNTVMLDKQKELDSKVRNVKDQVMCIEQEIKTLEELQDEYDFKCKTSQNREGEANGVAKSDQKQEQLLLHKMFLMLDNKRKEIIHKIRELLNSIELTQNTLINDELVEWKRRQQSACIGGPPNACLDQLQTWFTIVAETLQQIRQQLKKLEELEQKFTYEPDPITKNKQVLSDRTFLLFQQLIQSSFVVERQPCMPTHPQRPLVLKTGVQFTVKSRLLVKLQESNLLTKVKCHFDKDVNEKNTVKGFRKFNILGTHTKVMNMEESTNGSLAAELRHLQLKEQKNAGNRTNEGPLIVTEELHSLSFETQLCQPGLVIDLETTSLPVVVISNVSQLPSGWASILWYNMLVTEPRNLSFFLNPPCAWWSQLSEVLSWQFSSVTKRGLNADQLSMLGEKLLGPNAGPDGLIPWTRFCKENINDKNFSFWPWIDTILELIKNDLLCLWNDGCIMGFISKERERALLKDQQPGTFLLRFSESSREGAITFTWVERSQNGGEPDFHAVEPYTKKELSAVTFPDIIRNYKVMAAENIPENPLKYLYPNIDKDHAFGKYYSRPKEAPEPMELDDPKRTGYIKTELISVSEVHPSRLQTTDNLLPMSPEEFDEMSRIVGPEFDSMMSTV
# [19] = test system: RAW264.7; test: Inhibition of LPS-induced NO production in mouse RAW264.7 cells preincubated with compound for 2 hrs followed by LPS stimulation for 24 hrs by Griess reagent based assay; assay type: functional, cell-based
# [20] = test system: RAW264.7; test: as §1, with “NO production” for “IkappaBalpha degradation”, “antagonist” for “antagonist,”, “[…] reagent based assay” for “Western blot analysis”; assay type: functional, cell-based; settings: dose 0.2-5 µM
# [21] = test system: RAW264.7; test: Antiinflammatory activity in LPS-induced mouse RAW264.7 cells assessed as enhancement of JAK2 phosphorylation pretreated with compound for 2 hrs followed by LPS-stimulation and measured after 30 mins by Western blot analysis; assay type: functional, cell-based; settings: dose 0.2-5 µM, time 2.5 hrs, DDE = dose-dependent effect
# [22] = test system: Mus musculus; test: Antiinflammatory activity in LPS-induced ICR sepsis mouse model assessed as high survival rate at 5 to 20 mg/kg, ip pretreated with compound for 5 days followed by LPS stimulation and measured 2 hrs post last dose; assay type: functional, organism-based; settings: dose 5-20 mg/kg, time 5.0 day
# [23] = test system: RAW264.7; test: as §1, with “LPS-induced” for “LPS-stimulated”, “enhancement” for “inhibition”, “JAK2 phosphorylation” for “IkappaBalpha degradation”, “antagonist” for “antagonist,”; assay type: functional, cell-based; settings: dose 0.2-5 µM, time 2.5 hrs
# [24] = test system: RAW264.7; test: Activation of NF-kappaB signalling pathway in mouse RAW264.7 cells assessed as suppression of LPS-induced IkappaBalpha phosphorylation pretreated with compound for 2 hrs followed by LPS-stimulation for 30 mins by Western blot analysis; assay type: cell-based; settings: filed as activator, dose 0.2-5 µM, time 2.5 hrs, DDE = dose-dependent effect
# [25] = test system: RAW264.7; test: Antiinflammatory activity in LPS-induced mouse RAW264.7 cells assessed as enhancement of STAT3 phosphorylation at 20 uM pretreated with compound for 2 hrs followed by LPS-stimulation and measured after 30 mins by Western blot analysis; assay type: functional, cell-based; settings: time 2.5 hrs
# [26] = test system: RAW264.7; test: Antiinflammatory activity in LPS-induced mouse RAW264.7 cells assessed as enhancement of JAK2 phosphorylation at 20 uM pretreated with compound for 2 hrs followed by LPS-stimulation and measured after 30 mins by Western blot analysis; assay type: functional, cell-based; settings: time 2.5 hrs
# [27] = test system: RAW264.7; test: Antiinflammatory activity in LPS-induced mouse RAW264.7 cells assessed as enhancement of STAT3 phosphorylation at […] pretreated with compound for 2 hrs followed by LPS-stimulation and measured after 30 mins by Western blot analysis; assay type: functional, cell-based; settings: time 2.5 hrs
# [28] = test system: RAW264.7; test: Antiinflammatory activity in LPS-induced mouse RAW264.7 cells assessed as enhancement of JAK2 phosphorylation at […] pretreated with compound for 2 hrs followed by LPS-stimulation and measured after 30 mins by Western blot analysis; assay type: functional, cell-based; settings: time 2.5 hrs
smiles,measurement,setting,value
CC(=O)Oc1ccc(CC[C@H](CCCCc2ccccc2)OC(C)=O)cc1OC(C)=O,Activity,[1],Dde
same,inhibition at 5 µM,[2],93.2%
same,Activity,[3],Active
same,Activity,[4],Active
same,Activity,[5],Active
same,Activity,[6],Dde
same,Activity,[7],Active
same,Activity,[8],Active
same,Activity,[9],Active
same,Activity,[10],Active
same,Activity,[11],Active
same,Activity,[12],Dde
same,Activity,[13],Dde
same,Activity,[14],Active
same,Activity,[15],Non-Toxic
same,Activity,[16],Dde
same,Activity,[17],Dde
same,inhibition,[18],Dde
same,IC50,[19],320 nM
same,Activity,[20],Active
same,Activity,[21],Dde
same,Activity,[22],Active
same,Activity,[23],Active
same,Activity,[24],Dde
COc1ccc(OC)c(/C=C/C=C/C(=O)/C=C/c2ccc(OC)c(O)c2)c1,inhibition at 5 µM,[2],101%
same,Activity,[15],Non-Toxic
same,IC50,[19],610 nM
COc1ccc(/C=C2\CCCN=C2c2cccnc2)c(OC)c1,Activity,[25],Active
same,Activity,[26],Active
same,Activity,[27],Active
same,Activity,[28],Active
C(=C\C=C\c1ccccc1)/C=C/Cc1ccccc1,inhibition at 5 µM,[2],124%
same,Activity,[15],Non-Toxic
same,IC50,[19],840 nM
COc1cccc(/C=C/C(=O)/C=C/C=C/c2cccc(O)c2)c1,inhibition at 5 µM,[2],84.3%
same,Activity,[15],Non-Toxic
same,IC50,[19],810 nM
COc1ccc(/C=C/C(=O)/C=C/C=C/c2cccc(O)c2)cc1,inhibition at 5 µM,[2],85.8%
same,Activity,[15],Non-Toxic
same,IC50,[19],1230 nM
CC(=O)Oc1ccc(CC[C@@H](O)CC/C=C/c2ccccc2)cc1OC(C)=O,inhibition at 5 µM,[2],121%
same,Activity,[15],Non-Toxic
same,IC50,[19],1610 nM
COc1cc(/C=C/C(=O)CC(=O)/C=C/c2ccc(O)c(OC)c2)ccc1O [CURCUMIN],inhibition at 5 µM,[2],74%
same,Activity,[15],Non-Toxic
same,IC50,[19],1890 nM

# From ChEMBL document CHEMBL5120875, “Discovery of diarylheptanoids that activate α7 nAchR-JAK2-STAT3 signaling in macrophages with anti-inflammatory activity in vitro and in vivo” (Bioorg Med Chem, 2022)
